Molecular target: T1, Bvu (Phocaeicola vulgatus, UniProt A6L2D9)
T1 construct: gene BVU_2192
Assay: biochemical

T1 sequence (A6L2D9 entry or part of it): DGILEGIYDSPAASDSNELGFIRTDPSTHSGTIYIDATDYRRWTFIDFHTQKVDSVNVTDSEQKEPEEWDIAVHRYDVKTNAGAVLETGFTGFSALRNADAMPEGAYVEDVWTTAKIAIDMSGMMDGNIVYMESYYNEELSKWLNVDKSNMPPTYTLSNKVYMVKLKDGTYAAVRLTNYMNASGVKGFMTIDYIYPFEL

Compound: C=CC1=C(C)C2=Cc3c(C=C)c(C)c4[n]3[Fe][n]3c(c(C)c(CCC(=O)O)c3=CC3=NC(=C4)C(C)=C3CCC(=O)O)=CC1=N2 [Fe(II)heme]
- Kd: 1.6 nM
